Converted amounts (≈) assume the structure as drawn.
Columns and labels:
P388 = test: Cytotoxicity against mouse P388 cells measured after 48 hrs by MTT assay; type: functional, cell-based; details: P388, 48 h
Porphyromonas gingivalis = test: Antibacterial activity against Porphyromonas gingivalis ATCC 33277 by REMA; type: functional
[1] = tested on: Mycobacterium tuberculosis; test: Antibacterial activity against Mycobacterium tuberculosis ATCC 27294 by REMA; type: functional
A549 = test: Antiproliferative activity against human A549 cells assessed as inhibition of cell growth at 100 uM by MTT assay relative to control; type: functional
[2] = Inhibition of mitochondrial complex III (unknown origin); set-up: species or system Homo sapiens
Synechococcus elongatus = test: Antibacterial activity against Synechococcus elongatus PCC 6301 by plate reader method; type: functional, organism-based
Klebsiella pneumoniae = test: Antibacterial activity against Klebsiella pneumoniae patient isolate; type: functional
Escherichia coli [3] = test: Antibacterial activity against Escherichia coli ATCC 25922; type: functional
Pseudomonas aeruginosa = test: Antibacterial activity against Pseudomonas aeruginosa; type: functional
[4] = Toxicity in Myzus persicae assessed as mortality relative to control
[5] = Reversal of heartbeat inhibition in embryonic chicken cardiac cells; type: functional, cell-based, Gallus gallus; details: cardiac muscle cell
[6] = Inhibition of serotonin induced dermal vascular permeability in Sprague-Dawley rat blood vessels at 100 mg/kg, ip measured after 5 mins relative to control; type: functional; details: Blood vessel
[7] = Inhibition of bradykinin induced dermal vascular permeability in Sprague-Dawley rat blood vessels at 100 mg/kg, ip measured after 5 mins relative to control; type: functional; details: Blood vessel
[8] = Inhibition of histamine induced dermal vascular permeability in Sprague-Dawley rat blood vessels at 100 mg/kg, ip measured after 5 mins relative to control; type: functional; details: Blood vessel
DU-145 = test: Antiproliferative activity against human DU-145 cells measured after 48 hrs by MTT assay; type: cell-based; details: DU-145, 48 h
[9] = Cytotoxicity against human L02 cells measured after 24 hrs by MTT assay; type: toxicity, cell-based
SMMC-7721 = test: Antiproliferative activity against human […] cells measured after 24 hrs by MTT assay; type: functional, cell-based; details: SMMC-7721, 24 h
MCF7 = test: Antiproliferative activity against human MCF7 cells measured after 48 hrs by MTT assay; type: cell-based; details: MCF7, 48 h
HCT-116 = test: Antiproliferative activity against human HCT-116 cells measured after 48 hrs by MTT assay; type: cell-based; details: HCT-116, 48 h
[10] = Toxicity in Aphis craccivora assessed as mortality at 20 mg/L relative to control; details: at 20 µg/mL
[11] = Toxicity in Nilaparvata lugens assessed as mortality at 20 mg/L relative to control; details: at 20 µg/mL
Leishmania amazonensis = test: Antileishmanial activity against Leishmania amazonensis incubated for 24 hrs; type: functional, organism-based
[12] = Toxicity in Myzus persicae assessed as mortality at 0.80 mg/L relative to control; details: at 0.8 µg/mL, dose 0.8 mg/L
Aeromonas salmonicida = test: Antimicrobial activity against Aeromonas salmonicida ATCC 14174; type: functional
Vibrio anguillarum = test: Antibacterial activity against Vibrio anguillarum NCMB6; type: functional
[13] = Toxicity in mouse engrafted with mouse L1210 cells assessed as lethal dose measured per […]; type: cell-based
[14] = Inhibition of DNA in mouse L1210 cells; type: cell-based
[15] = Inhibition of RNA in mouse L1210 cells; type: cell-based
Streptomyces sp. = test: Antibacterial activity against Streptomyces sp. ATCC 23836; type: functional
Brevibacillus brevis = test: Antibacterial activity against Bacillus brevis; type: functional
Botrytis cinerea = test: […] activity against Botrytis cinerea; type: functional
[16] = Toxicity in Spodoptera littoralis larvae; set-up: species or system Larva
[17] = target: ATP-sensitive inward rectifier potassium channel 1 (Homo sapiens, UniProt P48048); test: Inhibition of ROMK (unknown origin) by Thallium Efflux assay
Staphylococcus aureus = test: Antibacterial activity against Staphylococcus aureus; type: functional
Escherichia coli [18] = test: Antibacterial activity against Escherichia coli; type: functional
[19] = Toxicity in Anopheles darlingi larvae measured after 48 hrs; set-up: species or system Larva
[20] = Toxicity in Aphis craccivora assessed as mortality at 100 mg/ml relative to control; set-up: dose or concentration left out as unconfirmed
[21] = Toxicity in Aphis gossypii assessed as mortality at 4 mg/L relative to control; details: at 4 µg/mL
[22] = Toxicity in Nilaparvata lugens assessed as mortality at 100 mg/ml relative to control; set-up: dose or concentration left out as unconfirmed
[23] = Toxicity in Myzus persicae assessed as mortality at 20 mg/L relative to control; details: at 20 µg/mL

Chain of ATP-sensitive inward rectifier potassium channel 1 (P48048 whole entry): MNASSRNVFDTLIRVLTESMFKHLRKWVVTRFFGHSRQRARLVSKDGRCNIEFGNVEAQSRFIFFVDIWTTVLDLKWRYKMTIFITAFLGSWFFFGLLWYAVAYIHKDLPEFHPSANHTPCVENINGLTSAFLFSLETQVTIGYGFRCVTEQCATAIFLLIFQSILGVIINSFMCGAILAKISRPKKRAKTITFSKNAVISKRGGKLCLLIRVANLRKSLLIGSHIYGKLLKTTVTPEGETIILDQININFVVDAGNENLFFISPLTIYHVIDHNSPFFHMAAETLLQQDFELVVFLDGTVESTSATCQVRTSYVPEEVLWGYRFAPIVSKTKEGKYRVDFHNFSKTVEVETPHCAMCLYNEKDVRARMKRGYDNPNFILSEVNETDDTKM

**Q.** For `COc1cc(C2C3=C(COC3=O)Nc3cc4c(cc32)OCO4)cc(OC)c1OC` (stereo unspecified), which IC50 (P388) is on record?
**A.** The IC50 was 4530 nM.

**Q.** With `COc1cc(C2C3=C(COC3=O)Nc3cc4c(cc32)OCO4)c([N+](=O)[O-])cc1OC` (stereo unspecified) as the compound, how does the MIC50 (Porphyromonas gingivalis) read?
**A.** Its MIC50 is 25 µg/mL (≈ 60.6 µM).

**Q.** What about the MIC50 [1] of the same compound?
**A.** The MIC50 was 250 µg/mL (≈ 606 µM).

**Q.** For `CCOC(=O)[C@H](Cc1ccccc1)NC1=C(Cl)C(=O)O[C@@H]1O[C@@H]1C[C@H](C)CC[C@H]1C(C)C`, which inhibition at 100 µM (A549) is on record?
**A.** Its inhibition at 100 µM is 91.8%.

**Q.** Which IC50 [2] does the source give for `CCCCCC[C@H](O)CCC[C@H](O)[C@H]1CC[C@H]([C@H]2CC[C@H]([C@H](O)CCCCCCCCCCCCC3=C(N)[C@H](C)OC3=O)O2)O1` here?
**A.** The IC50 was 40 nM.

**Q.** Which IC50 (Synechococcus elongatus) does the source give for `O=C1O[C@@H]([C@H](O)c2ccc(-c3ccccc3)cc2)C(Nc2ccc(Br)cc2)=C1Cl` here?
**A.** Its IC50 is 1300 nM.

**Q.** With `COC1OC(=O)C(Br)=C1n1cnc2cc(C)c(C)cc21` (stereo unspecified) as the compound, how does the MIC50 (Klebsiella pneumoniae) read?
**A.** The MIC50 was 16 µg/mL (≈ 47.5 µM).

**Q.** What about the MIC50 (Escherichia coli [3]) of the same compound?
**A.** Its MIC50 is 2 µg/mL (≈ 5.93 µM).

**Q.** What about the MIC50 (Pseudomonas aeruginosa) of the same compound?
**A.** The MIC50 was 8 µg/mL (≈ 23.7 µM).

**Q.** With `N#CC1(c2cncc(Cl)c2)CC2CCC(C1)N2CC(F)F` (stereo unspecified) as the compound, how does the Activity [4] read?
**A.** The Activity was > 80%.

**Q.** Which EC50 [5] does the source give for `CCOC(=O)C1C(C)NC2=C(C(=O)OC2)C1c1ccccc1OC(F)F` (stereo unspecified) here?
**A.** Its EC50 is 60 nM.

**Q.** Which inhibition at 100 µM (A549) does the source give for `CCN(CC)C1=C(Cl)C(=O)OC1OC` (stereo unspecified) here?
**A.** Its inhibition at 100 µM is 80.5%.

**Q.** For `Cc1ccc(NC2=C(Cl)C(=O)O[C@H]2[C@H](O)c2ccc(-c3ccccc3)cc2)cc1`, which IC50 (Synechococcus elongatus) is on record?
**A.** Its IC50 is 4400 nM.

**Q.** With `CC[C@H](C)[C@H](NC1=C(Br)C(=O)O[C@@H]1O[C@@H]1C[C@H](C)CC[C@H]1C(C)C)C(=O)OC` as the compound, how does the inhibition at 100 µM (A549) read?
**A.** The inhibition at 100 µM was 97.2%.

**Q.** Which inhibition in vivo at 100 mg/kg [6] does the source give for `O=C(N[C@H]1C[C@@H]1c1ccccc1)C1=C(Nc2ccc(Cl)cc2)COC1=O` here?
**A.** The inhibition in vivo at 100 mg/kg was 94%.

**Q.** And the inhibition in vivo at 100 mg/kg [7]?
**A.** Its inhibition in vivo at 100 mg/kg is 100%.

**Q.** What about the inhibition in vivo at 100 mg/kg [8] of the same compound?
**A.** Its inhibition in vivo at 100 mg/kg is 92%.

**Q.** Which IC50 (DU-145) does the source give for `COC1OC(=O)C(Cl)=C1N1CCN(CCCCCC[C@H]2CN([C@@H]3OC4O[C@]5(C)CC[C@H]6[C@H](C)CC[C@@H]([C@H]3C)[C@@]46OO5)CCS2(=O)=O)CC1` (stereo partly specified) here?
**A.** The IC50 was 20 nM.

**Q.** What about the IC50 at 24 h [9] of the same compound?
**A.** Its IC50 at 24 h is 70000 nM.

**Q.** What about the IC50 (SMMC-7721) of the same compound?
**A.** The IC50 was 30 nM.

**Q.** What about the IC50 (MCF7) of the same compound?
**A.** The IC50 was 10 nM.

**Q.** What about the IC50 (HCT-116) of the same compound?
**A.** The IC50 was 10 nM.

**Q.** Which results are given for `CN(Cc1ccc(Cl)nc1)C1=C(Br)C(=O)OC1OCCF` (stereo unspecified)?
**A.** Activity [10]: 100%; Activity [11]: 92%

**Q.** Which IC50 (Leishmania amazonensis) does the source give for `COc1cc2c(c(OC)c1OC)C(c1ccc(C(F)(F)F)cc1)C1=C(COC1=O)N2` (stereo unspecified) here?
**A.** Its IC50 is 6220 nM.

**Q.** For `NCCN(Cc1ccc(Cl)nc1)C1=CC(=O)OC1`, which Activity [12] is on record?
**A.** The Activity was 100%.

**Q.** For `NC1=CC(=O)O/C1=C/C=O`, which MIC50 (Aeromonas salmonicida) is on record?
**A.** Its MIC50 is 100 µg/mL (≈ 719 µM).

**Q.** And the MIC50 (Vibrio anguillarum)?
**A.** Its MIC50 is 100 µg/mL (≈ 719 µM).

**Q.** And the LC50 [13]?
**A.** Its LC50 is 6.25 mg.

**Q.** And the IC50 [14]?
**A.** The IC50 was 0.4 µg/mL (≈ 2.88 µM).

**Q.** And the IC50 [15]?
**A.** Its IC50 is 0.6 µg/mL (≈ 4.31 µM).

**Q.** And the MIC50 (Streptomyces sp.)?
**A.** Its MIC50 is 100 µg/mL (≈ 719 µM).

**Q.** And the MIC50 (Brevibacillus brevis)?
**A.** Its MIC50 is 50 µg/mL (≈ 359 µM).

**Q.** What about the MIC50 (Botrytis cinerea) of the same compound?
**A.** The MIC50 was 100 µg/mL (≈ 719 µM).

**Q.** For `CCCC[C@@]12[C@@H]3C[C@H]4[C@H]5[C@H](C)/C(=C6/OC(=O)C(C)=C6OC)O[C@]5(O3)[C@@H]1CCN42`, which LC50 [16] is on record?
**A.** Its LC50 is 2 µg/mL (≈ 5.16 µM).

**Q.** For `Cc1c([C@H](O)CN2CCC3(CC2)CCN(C2=C(F)C(=O)OC2)CC3)ccc2c1COC2=O`, which IC50 [17] is on record?
**A.** The IC50 was 7 nM.

**Q.** For `O=C1OC2C(=C1Cl)N2Cc1ccccc1` (stereo unspecified), which MIC50 (Staphylococcus aureus) is on record?
**A.** The MIC50 was 4 µg/mL (≈ 18 µM).

**Q.** What about the MIC50 (Escherichia coli [18]) of the same compound?
**A.** The MIC50 was 8 µg/mL (≈ 36.1 µM).

**Q.** And the MIC50 (Pseudomonas aeruginosa)?
**A.** Its MIC50 is 16 µg/mL (≈ 72.2 µM).

**Q.** With `O=C1C=C(N(Cc2ccc(Cl)nc2)CC(F)F)CO1` as the compound, how does the LC50 [19] read?
**A.** The LC50 was 1.18 µg/mL (≈ 4.09 µM).

**Q.** What about the Activity [20] of the same compound?
**A.** The Activity was 90%.

**Q.** What about the Activity [12] of the same compound?
**A.** Its Activity is 100%.

**Q.** And the Activity [21]?
**A.** Its Activity is 98%.

**Q.** What about the Activity [22] of the same compound?
**A.** The Activity was 100%.

**Q.** For `O=C1C=C(N(CCF)Cc2cnc(Cl)c(Cl)c2)CO1`, which Activity [23] is on record?
**A.** The Activity was 100%.

**Q.** For `COc1cc([C@@H]2c3cc4c(cc3[C@H](O)[C@H]3COC(=O)[C@H]23)OCO4)cc(OC)c1OC` [PODOFILOX], which IC50 (P388) is on record?
**A.** The IC50 was 10400 nM.
